# Experimental data: patent publication US20200187499A1, “SUBSTITUTED BENZYL-4-AMINOPICOLINIC ESTERS AND PYRIMIDINO-4-CARBOXYLIC ESTERS, METHODS FOR THE PRODUCTION THEREOF, AND USE THEREOF AS HERBICIDES AND PLANT GROWTH REGULATORS” (Bayer CropScience Aktiengesellschaft, priority 2017, published 2020)
# Test system: ABUTH
# Assay: Post-emergence herbicidal action
# Type: in vivo
# Conditions: Table 5, post-emergence (PO), 320 g/ha, assessed after about 3 weeks
# Experimental: (§1) Seeds of monocotyledonous and dicotyledonous weed and crop plants are laid out in sandy loam soil in wood-fiber pots, covered with soil and cultivated in a greenhouse under good growth conditions. 2 to 3 weeks after sowing, the test plants are treated at the one-leaf stage. The compounds of the invention, formulated in the form of wettable powders (WP) or as emulsion concentrates (EC), are then sprayed onto the green parts of the plants in the form of an aqueous suspension or emulsion at a water application rate equating to 600 to 800 l/ha, with addition of 0.2% wetting agent. After the test plants have been left to stand in the greenhouse under optimal growth conditions for about 3 weeks, the action of the preparations is assessed visually in comparison to untreated controls (herbicidal action in percent (%): 100% activity=the plants have died, 0% activity=like control plants). […] At the same time, inventive compounds leave Gramineae crops such as barley, wheat, rye, millet/sorghum, corn or rice virtually undamaged when applied post-emergence, even at high active ingredient dosages. In addition, some substances are also harmless to dicotyledonous crops such as soya, cotton, oilseed rape, sugar beet or potatoes. Some of the compounds according to the invention have high selectivity and are therefore suitable for controlling unwanted vegetation in agricultural crops by the post-emergence method. The tables below illustrate, in an exemplary manner, the post-emergence herbicidal action of the compounds according to the invention, the herbicidal activity being stated in percent.
row,SMILES,Herbicidal action against ABUTH
1,Nc1c(F)c(-c2ccc3occc3c2)nc(C(=O)OCc2ccc(F)cc2)c1Cl [Example I-34],90%
2,COc1ccc(COC(=O)c2nc(-c3ccc4ccoc4c3)c(F)c(N)c2Cl)c(OC)c1 [Example I-35],80%
3,Nc1cc(-c2ccc3sccc3c2)nc(C(=O)OCc2cccc(Cl)c2)c1Cl [Example I-40],90%
4,Nc1c(F)c(-c2ccc3sccc3c2)nc(C(=O)OCc2ccc(Cl)cc2)c1Cl [Example I-65],80%

# Test system: SETVI
# Assay: Post-emergence herbicidal action
# Type: in vivo
# Conditions: Table 5, post-emergence (PO), 320 g/ha, assessed after about 3 weeks
# Experimental: as §1
row,SMILES,Herbicidal action against SETVI
1,Nc1c(F)c(-c2ccc3occc3c2)nc(C(=O)OCc2ccc(F)cc2)c1Cl [Example I-34],100%
2,COc1ccc(COC(=O)c2nc(-c3ccc4ccoc4c3)c(F)c(N)c2Cl)c(OC)c1 [Example I-35],100%
3,Nc1cc(-c2ccc3sccc3c2)nc(C(=O)OCc2cccc(Cl)c2)c1Cl [Example I-40],90%
4,Nc1c(F)c(-c2ccc3sccc3c2)nc(C(=O)OCc2ccc(Cl)cc2)c1Cl [Example I-65],90%

# Test system: POLCO
# Assay: Post-emergence herbicidal action
# Type: in vivo
# Conditions: Table 5, post-emergence (PO), 320 g/ha, assessed after about 3 weeks
# Experimental: as §1
row,SMILES,Herbicidal action against POLCO
1,Nc1c(F)c(-c2ccc3occc3c2)nc(C(=O)OCc2ccc(F)cc2)c1Cl [Example I-34],80%
2,COc1ccc(COC(=O)c2nc(-c3ccc4ccoc4c3)c(F)c(N)c2Cl)c(OC)c1 [Example I-35],80%
3,Nc1cc(-c2ccc3sccc3c2)nc(C(=O)OCc2cccc(Cl)c2)c1Cl [Example I-40],40%
4,Nc1c(F)c(-c2ccc3sccc3c2)nc(C(=O)OCc2ccc(Cl)cc2)c1Cl [Example I-65],100%

# Test system: ECHCG
# Assay: Post-emergence herbicidal action
# Type: in vivo
# Conditions: Table 5, post-emergence (PO), 320 g/ha, assessed after about 3 weeks
# Experimental: as §1
row,SMILES,Herbicidal action against ECHCG
1,Nc1c(F)c(-c2ccc3occc3c2)nc(C(=O)OCc2ccc(F)cc2)c1Cl [Example I-34],80%
2,COc1ccc(COC(=O)c2nc(-c3ccc4ccoc4c3)c(F)c(N)c2Cl)c(OC)c1 [Example I-35],90%
3,Nc1cc(-c2ccc3sccc3c2)nc(C(=O)OCc2cccc(Cl)c2)c1Cl [Example I-40],90%
4,Nc1c(F)c(-c2ccc3sccc3c2)nc(C(=O)OCc2ccc(Cl)cc2)c1Cl [Example I-65],80%

# Test system: AMARE
# Assay: Post-emergence herbicidal action
# Type: in vivo
# Conditions: Table 5, post-emergence (PO), 320 g/ha, assessed after about 3 weeks
# Experimental: as §1
row,SMILES,Herbicidal action against AMARE
1,Nc1c(F)c(-c2ccc3occc3c2)nc(C(=O)OCc2ccc(F)cc2)c1Cl [Example I-34],100%
2,COc1ccc(COC(=O)c2nc(-c3ccc4ccoc4c3)c(F)c(N)c2Cl)c(OC)c1 [Example I-35],100%
3,Nc1cc(-c2ccc3sccc3c2)nc(C(=O)OCc2cccc(Cl)c2)c1Cl [Example I-40],100%
4,Nc1c(F)c(-c2ccc3sccc3c2)nc(C(=O)OCc2ccc(Cl)cc2)c1Cl [Example I-65],100%

# Test system: PHBPU
# Assay: Post-emergence herbicidal action
# Type: in vivo
# Conditions: Table 5, post-emergence (PO), 320 g/ha, assessed after about 3 weeks
# Experimental: as §1
row,SMILES,Herbicidal action against PHBPU
1,Nc1c(F)c(-c2ccc3occc3c2)nc(C(=O)OCc2ccc(F)cc2)c1Cl [Example I-34],40%
2,COc1ccc(COC(=O)c2nc(-c3ccc4ccoc4c3)c(F)c(N)c2Cl)c(OC)c1 [Example I-35],20%
3,Nc1cc(-c2ccc3sccc3c2)nc(C(=O)OCc2cccc(Cl)c2)c1Cl [Example I-40],80%
4,Nc1c(F)c(-c2ccc3sccc3c2)nc(C(=O)OCc2ccc(Cl)cc2)c1Cl [Example I-65],0%

# Test system: VIOTR
# Assay: Post-emergence herbicidal action
# Type: in vivo
# Conditions: Table 5, post-emergence (PO), 320 g/ha, assessed after about 3 weeks
# Experimental: as §1
row,SMILES,Herbicidal action against VIOTR
1,Nc1c(F)c(-c2ccc3occc3c2)nc(C(=O)OCc2ccc(F)cc2)c1Cl [Example I-34],0%
2,COc1ccc(COC(=O)c2nc(-c3ccc4ccoc4c3)c(F)c(N)c2Cl)c(OC)c1 [Example I-35],60%
3,Nc1cc(-c2ccc3sccc3c2)nc(C(=O)OCc2cccc(Cl)c2)c1Cl [Example I-40],60%
4,Nc1c(F)c(-c2ccc3sccc3c2)nc(C(=O)OCc2ccc(Cl)cc2)c1Cl [Example I-65],10%

# Test system: STEME
# Assay: Post-emergence herbicidal action
# Type: in vivo
# Conditions: Table 5, post-emergence (PO), 320 g/ha, assessed after about 3 weeks
# Experimental: as §1
row,SMILES,Herbicidal action against STEME
1,Nc1c(F)c(-c2ccc3occc3c2)nc(C(=O)OCc2ccc(F)cc2)c1Cl [Example I-34],90%
2,COc1ccc(COC(=O)c2nc(-c3ccc4ccoc4c3)c(F)c(N)c2Cl)c(OC)c1 [Example I-35],90%
3,Nc1cc(-c2ccc3sccc3c2)nc(C(=O)OCc2cccc(Cl)c2)c1Cl [Example I-40],80%
4,Nc1c(F)c(-c2ccc3sccc3c2)nc(C(=O)OCc2ccc(Cl)cc2)c1Cl [Example I-65],80%

# Test system: ECHCG
# Assay: Pre-emergence herbicidal action
# Type: in vivo
# Conditions: Table 4, pre-emergence (PE), 320 g/ha, scored after 3 weeks
# Text: (§2) Seeds of monocotyledonous and dicotyledonous weed plants and crop plants are laid out in sandy loam soil in wood-fiber pots and covered with soil. The compounds of the invention, formulated in the form of wettable powders (WP) or as emulsion concentrates (EC), are then applied to the surface of the covering soil in the form of an aqueous suspension or emulsion at a water application rate equating to 600 to 800 I/ha, with addition of 0.2% wetting agent. After the treatment, the pots are placed in a greenhouse and kept under good growth conditions for the trial plants. The damage to the test plants is scored visually after a test period of 3 weeks by comparison with untreated controls (herbicidal activity in percent (%): 100% activity=the plants have died, 0% activity=like control plants).
# (§3) At the same time, inventive compounds leave Gramineae crops such as barley, wheat, rye, millet/sorghum, corn or rice virtually undamaged when applied pre-emergence, even at high active ingredient dosages. In addition, some substances are also harmless to dicotyledonous crops such as soya, cotton, oilseed rape, sugar beet or potatoes. […] The tables below illustrate, in an exemplary manner, the pre-emergence herbicidal action of the compounds according to the invention, the herbicidal activity being stated in percent.
row,SMILES,Herbicidal action against ECHCG
1,Nc1c(F)c(-c2ccc3occc3c2)nc(C(=O)OCc2ccc(F)cc2)c1Cl [Example I-34],50%
2,COc1ccc(COC(=O)c2nc(-c3ccc4ccoc4c3)c(F)c(N)c2Cl)c(OC)c1 [Example I-35],40%
3,Nc1cc(-c2ccc3sccc3c2)nc(C(=O)OCc2cccc(Cl)c2)c1Cl [Example I-40],10%

# Test system: AMARE
# Assay: Pre-emergence herbicidal action
# Type: in vivo
# Conditions: Table 4, pre-emergence (PE), 320 g/ha, scored after 3 weeks
# Text: as §2, §3
row,SMILES,Herbicidal action against AMARE
1,Nc1c(F)c(-c2ccc3occc3c2)nc(C(=O)OCc2ccc(F)cc2)c1Cl [Example I-34],100%
2,COc1ccc(COC(=O)c2nc(-c3ccc4ccoc4c3)c(F)c(N)c2Cl)c(OC)c1 [Example I-35],100%
3,Nc1cc(-c2ccc3sccc3c2)nc(C(=O)OCc2cccc(Cl)c2)c1Cl [Example I-40],80%
